Measured values: patent US20210307272A1, “USE OF PLANT GROWTH REGULATORS TO ENHANCE ALGAE GROWTH FOR THE PRODUCTION OF ADDED VALUE PRODUCTS” (priority 2009, published 2021)

What was measured:
Type in all cases: cell-based
Scenedesmus obliquus [1] = assay: Effect of hormone concentrations on growth rate of Scenedesmus obliquus, photoheterotrophic; conditions: 48 hours, control 0.41
Scenedesmus obliquus [2] = assay: Effect of hormone concentrations on growth rate of Scenedesmus obliquus, heterotrophic; conditions: 48 hours, control 0.35
Chlorella protothecoides [3] = assay: Effect of hormone concentrations on growth rate of Chlorella protothecoides, photoheterotrophic; conditions: 48 hours, control 1.05
Experimental: The influence of light exposure during Scenedesmus obliquus and Chlorella protothecoides growth was assessed. The growth rates of both algae were higher in photoheterotrophic growth conditions. The Scenedesmus obliquus growth rate was about 86.7% higher under photoheterotrophic growth. Meanwhile, the Chlorella protothecoides growth rate increased 39.07% when the growth was conducted under photoheterotrophic growth.

Chlorella protothecoides [4] = assay: Effect of hormone concentrations on growth rate of Chlorella protothecoides, heterotrophic; conditions: 48 hours, control 1.54
[5] = system: Auxenochlorella protothecoides; assay: Auxenochlorella protothecoides culture with growth regulator, dry weight and oil after seven days; conditions: 2 mg/L
Experimental: Auxenochlorella protothecoides was grown in Bristol's medium (see above) amended with 0.1% yeast extract (see above) and 0.5% glucose (control cells). Two other groups were cultured in the same medium with either indole acetic acid (2 mg/L, Cat. No. 12886, Sigma-Aldrich Canada Ltd.) or giberellic acid (2 mg/L, Cat. No. G7645, Sigma-Aldrich Canada Ltd.) added. Dry weights were determined and compared between the culture groups after seven days.

SMILES	growth rate (Scenedesmus obliquus [1]; 0.01 ng)	growth rate (Scenedesmus obliquus [1]; 0.1 ng)	growth rate (Scenedesmus obliquus [1]; 1 ng)	growth rate (Scenedesmus obliquus [1]; 10 ng)	growth rate (Scenedesmus obliquus [1]; 100 ng)	growth rate (Scenedesmus obliquus [2]; 0.01 ng)	growth rate (Scenedesmus obliquus [2]; 0.1 ng)	growth rate (Scenedesmus obliquus [2]; 1 ng)	growth rate (Scenedesmus obliquus [2]; 10 ng)	growth rate (Scenedesmus obliquus [2]; 100 ng)	growth rate (Chlorella protothecoides [3]; 0.01 ng)	growth rate (Chlorella protothecoides [3]; 0.1 ng)	growth rate (Chlorella protothecoides [3]; 1 ng)	growth rate (Chlorella protothecoides [3]; 10 ng)	growth rate (Chlorella protothecoides [3]; 100 ng)	growth rate (Chlorella protothecoides [4]; 0.01 ng)	growth rate (Chlorella protothecoides [4]; 0.1 ng)	growth rate (Chlorella protothecoides [4]; 1 ng)	growth rate (Chlorella protothecoides [4]; 10 ng)	growth rate (Chlorella protothecoides [4]; 100 ng)	other results
O=C(O)COc1ccc(Cl)cc1Cl [2,4-Dichlorophenoxyacetic, 2,4-dichlorophenoxyacetic acid]	0.42	0.44	0.47	0.44	0.33	0.28	0.23	0.31	0.24	0.23	1.09	1.08	1.01	1.08	1.03	1.40	1.53	1.43	1.31	1.50	–
C=C1C[C@]23C[C@@]1(O)CC[C@H]2[C@@]12C=C[C@H](O)[C@@](C)(C(=O)O1)[C@H]2[C@@H]3C(=O)O [Gibberellic acid]	0.59	0.47	0.56	0.56	0.51	0.44	0.50	0.43	0.36	0.42	1.06	1.02	1.00	1.09	1.10	1.52	1.52	1.46	1.52	1.46	increase of dry cell mass relative to the control [5]: 20%
O=C(O)Cc1cccc2ccccc12 [1-Naphthaleneacetic acid]	0.84	0.85	0.81	0.80	0.73	0.26	0.28	0.33	0.28	0.39	1.00	1.02	1.05	1.07	1.16	1.66	1.54	1.62	1.57	1.62	–
c1ccc(CNc2ncnc3nc[nH]c23)cc1 [6-Benzylaminopurine, 6-benzylaminopurine]	0.46	0.37	0.47	0.47	0.52	0.28	0.32	0.39	0.36	0.33	1.00	1.12	1.07	1.04	1.08	1.48	1.54	1.50	1.52	1.46	–
c1coc(CNc2ncnc3[nH]cnc23)c1 [Kinetin, kinetin]	0.57	0.73	0.92	0.37	0.36	0.28	0.26	0.36	0.31	0.28	1.08	1.10	1.02	1.18	1.19	1.60	1.50	1.44	1.60	1.58	–
O=C(O)Cc1c[nH]c2ccccc12 [Indole-3-acetic acid, indole-3-acetic acid]	0.42	0.47	0.49	0.49	0.62	0.23	0.36	0.42	0.47	0.41	1.06	1.05	0.97	1.13	1.02	1.62	1.61	1.49	1.60	1.60	increase of dry cell mass relative to the control [5]: 50%; increase of oil production [5]: 15%
